Assay [1] deals with T1, Alpha-2A adrenergic receptor (Homo sapiens, UniProt P08913).
T1 sequence (P08913 whole entry): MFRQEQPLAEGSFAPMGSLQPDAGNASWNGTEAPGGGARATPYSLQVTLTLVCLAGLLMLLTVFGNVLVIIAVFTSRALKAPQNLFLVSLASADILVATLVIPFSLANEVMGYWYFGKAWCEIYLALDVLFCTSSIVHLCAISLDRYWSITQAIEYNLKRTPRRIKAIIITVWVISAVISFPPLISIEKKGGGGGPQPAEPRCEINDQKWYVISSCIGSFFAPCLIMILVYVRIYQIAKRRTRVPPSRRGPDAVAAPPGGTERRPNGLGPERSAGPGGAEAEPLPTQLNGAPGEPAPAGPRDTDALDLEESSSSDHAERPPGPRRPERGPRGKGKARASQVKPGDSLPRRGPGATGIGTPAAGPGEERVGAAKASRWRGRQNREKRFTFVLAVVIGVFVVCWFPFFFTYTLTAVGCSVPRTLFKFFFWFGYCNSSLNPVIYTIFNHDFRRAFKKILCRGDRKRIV
The format is functional, cell-based.

The next assay addresses T2, Adenosine receptor A1 (Homo sapiens, UniProt P30542).
T2 sequence (P30542 whole entry): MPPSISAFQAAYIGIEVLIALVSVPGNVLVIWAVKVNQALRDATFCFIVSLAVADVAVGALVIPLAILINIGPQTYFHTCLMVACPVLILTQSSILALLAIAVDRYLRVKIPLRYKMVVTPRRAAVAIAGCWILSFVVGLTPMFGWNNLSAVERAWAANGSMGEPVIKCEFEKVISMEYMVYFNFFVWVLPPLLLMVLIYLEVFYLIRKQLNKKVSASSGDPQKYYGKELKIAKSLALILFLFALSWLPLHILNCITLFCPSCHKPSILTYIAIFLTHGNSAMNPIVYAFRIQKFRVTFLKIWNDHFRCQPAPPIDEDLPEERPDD

Assay [2] has as its target T3, Alpha-1A adrenergic receptor (Homo sapiens, UniProt P35348).
T3 sequence (P35348 whole entry): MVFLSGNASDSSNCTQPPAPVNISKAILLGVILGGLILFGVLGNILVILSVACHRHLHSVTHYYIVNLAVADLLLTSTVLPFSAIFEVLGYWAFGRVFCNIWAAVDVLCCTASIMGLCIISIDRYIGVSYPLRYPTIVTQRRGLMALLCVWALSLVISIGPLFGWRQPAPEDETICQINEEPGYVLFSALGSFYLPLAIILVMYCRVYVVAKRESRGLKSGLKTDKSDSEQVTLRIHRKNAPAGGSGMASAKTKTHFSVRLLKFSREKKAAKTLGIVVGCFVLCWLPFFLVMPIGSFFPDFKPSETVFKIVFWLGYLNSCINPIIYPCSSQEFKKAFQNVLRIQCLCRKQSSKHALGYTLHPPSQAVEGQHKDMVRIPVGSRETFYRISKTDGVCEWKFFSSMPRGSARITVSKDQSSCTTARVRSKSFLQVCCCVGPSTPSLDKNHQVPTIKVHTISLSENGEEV
The assay is classed as functional, cell-based.

The target of assay [3] is T4, Muscarinic acetylcholine receptor M1 (Homo sapiens, UniProt P11229).
T4 sequence (P11229 whole entry): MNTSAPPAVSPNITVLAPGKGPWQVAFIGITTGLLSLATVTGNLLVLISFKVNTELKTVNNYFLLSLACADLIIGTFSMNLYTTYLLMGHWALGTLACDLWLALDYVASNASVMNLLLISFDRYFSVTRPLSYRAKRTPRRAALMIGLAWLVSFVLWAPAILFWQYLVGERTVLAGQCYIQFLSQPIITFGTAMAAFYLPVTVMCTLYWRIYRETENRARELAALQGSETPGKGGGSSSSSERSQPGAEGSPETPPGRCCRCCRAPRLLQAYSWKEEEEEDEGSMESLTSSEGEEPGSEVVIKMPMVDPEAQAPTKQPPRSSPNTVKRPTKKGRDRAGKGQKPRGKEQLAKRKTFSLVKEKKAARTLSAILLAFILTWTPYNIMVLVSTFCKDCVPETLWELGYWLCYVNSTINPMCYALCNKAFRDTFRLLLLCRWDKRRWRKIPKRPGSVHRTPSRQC
The format is functional.

Assay [4] deals with T3, Alpha-1A adrenergic receptor. The format is functional, cell-based. This is another data set of the same source.
In assay [5] the target is T5, 5-hydroxytryptamine receptor 3A (Homo sapiens, UniProt P46098).
T5 sequence (P46098 whole entry): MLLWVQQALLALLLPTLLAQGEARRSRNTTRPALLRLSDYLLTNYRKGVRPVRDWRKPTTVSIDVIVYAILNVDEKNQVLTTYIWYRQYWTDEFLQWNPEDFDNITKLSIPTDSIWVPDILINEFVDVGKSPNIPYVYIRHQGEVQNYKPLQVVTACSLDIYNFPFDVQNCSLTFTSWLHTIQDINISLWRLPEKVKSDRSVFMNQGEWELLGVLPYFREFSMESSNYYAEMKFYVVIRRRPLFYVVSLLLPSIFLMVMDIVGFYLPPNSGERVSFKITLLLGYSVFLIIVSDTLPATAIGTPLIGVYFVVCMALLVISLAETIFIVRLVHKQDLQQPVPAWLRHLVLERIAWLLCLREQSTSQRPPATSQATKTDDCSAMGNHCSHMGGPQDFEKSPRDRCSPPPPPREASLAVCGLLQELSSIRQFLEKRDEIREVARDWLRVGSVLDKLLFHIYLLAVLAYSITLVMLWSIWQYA
The format is functional.

Another assay concerns the target T6, Adenosine receptor A3 (Homo sapiens, UniProt P0DMS8).
T6 sequence (P0DMS8 whole entry): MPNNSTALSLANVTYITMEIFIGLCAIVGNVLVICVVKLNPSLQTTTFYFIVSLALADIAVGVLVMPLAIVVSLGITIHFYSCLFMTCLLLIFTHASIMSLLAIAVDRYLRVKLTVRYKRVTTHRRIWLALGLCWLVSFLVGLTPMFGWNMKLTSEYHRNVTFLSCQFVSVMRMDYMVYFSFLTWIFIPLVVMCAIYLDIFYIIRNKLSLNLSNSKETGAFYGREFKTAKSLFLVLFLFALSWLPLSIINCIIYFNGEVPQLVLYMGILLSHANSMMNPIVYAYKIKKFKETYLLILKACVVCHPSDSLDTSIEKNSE

The target in assay [6] is Sodium-dependent noradrenaline transporter (Homo sapiens, UniProt P23975).
Sequence of Sodium-dependent noradrenaline transporter (P23975 whole entry): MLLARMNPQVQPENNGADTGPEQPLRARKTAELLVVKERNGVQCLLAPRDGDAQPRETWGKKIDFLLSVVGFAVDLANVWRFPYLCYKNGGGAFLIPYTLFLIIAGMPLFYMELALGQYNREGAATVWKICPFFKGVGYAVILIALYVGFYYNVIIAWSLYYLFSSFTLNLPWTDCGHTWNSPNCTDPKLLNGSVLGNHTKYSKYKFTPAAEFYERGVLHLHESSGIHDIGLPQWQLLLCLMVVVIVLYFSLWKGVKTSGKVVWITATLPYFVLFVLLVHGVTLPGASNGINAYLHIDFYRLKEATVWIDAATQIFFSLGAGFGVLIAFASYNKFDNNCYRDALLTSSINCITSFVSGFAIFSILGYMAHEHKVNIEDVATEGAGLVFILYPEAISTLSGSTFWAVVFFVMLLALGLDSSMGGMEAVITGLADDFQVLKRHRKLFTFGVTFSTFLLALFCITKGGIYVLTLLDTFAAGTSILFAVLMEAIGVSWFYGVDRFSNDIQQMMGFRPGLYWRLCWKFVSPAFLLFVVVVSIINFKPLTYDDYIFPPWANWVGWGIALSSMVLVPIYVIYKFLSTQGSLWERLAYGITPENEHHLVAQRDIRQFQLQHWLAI
A further assay deals with Melanocortin receptor 3 (Homo sapiens, UniProt P41968).
Sequence of Melanocortin receptor 3 (P41968 whole entry): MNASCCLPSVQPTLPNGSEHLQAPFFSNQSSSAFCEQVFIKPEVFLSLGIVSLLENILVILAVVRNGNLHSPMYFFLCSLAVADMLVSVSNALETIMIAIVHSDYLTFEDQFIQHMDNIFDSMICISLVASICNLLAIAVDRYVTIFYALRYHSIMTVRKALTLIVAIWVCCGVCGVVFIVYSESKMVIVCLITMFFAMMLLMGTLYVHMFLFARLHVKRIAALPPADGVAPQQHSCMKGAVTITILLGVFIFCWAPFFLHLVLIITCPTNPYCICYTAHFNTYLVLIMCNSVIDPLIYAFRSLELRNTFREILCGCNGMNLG
Also: assay procedure not described here.

The AC50 is the midpoint of the concentration-response curve, whichever way the signal moves. A lower AC50 goes with activity at low concentration. For `CO/N=C(\C(=O)N[C@@H]1C(=O)N2C(C(=O)O)=C(COC(N)=O)CS[C@H]12)c1ccco1` [CEFUROXIME], the AC50 (in [1]; on Adenosine receptor A1; in assay [2]; in assay [3]; in assay [4]; in assay [5]) was more than 30 µM in each case. For the same compound, the half-maximal activity concentration (AC50) (at Adenosine receptor A3; in assay [6]; at Melanocortin receptor 3) was more than 30 µM throughout.

Turning to `[H]/N=C(\N/C(=N/[H])NCCCCCCNC(=N)NC(=N)Nc1ccc(Cl)cc1)Nc1ccc(Cl)cc1` [CHLORHEXIDINE], the half-maximal activity concentration (AC50) in assay [1] was 4.34 µM; at Adenosine receptor A1, more than 30 µM; in assay [2], more than 30 µM; in assay [3], more than 10 µM; in assay [4] it was 0.6 µM; in assay [5], 5.9 µM. Moreover, the concentration at half-maximal activity (AC50) at Adenosine receptor A3 was 4.1 µM; in assay [6], 0.409 µM; at Melanocortin receptor 3 it was 0.49 µM.

With `C#Cc1cccc(Nc2ncnc3cc(OCCOC)c(OCCOC)cc23)c1` [ERLOTINIB], the AC50 (in assay [1]; on Adenosine receptor A1; in assay [2]; in assay [3]; in [4]; in [5]) was more than 30 µM each time. Further, the half-maximal activity concentration (AC50) was 25 µM on Adenosine receptor A3, more than 30 µM in [6] and more than 30 µM on Melanocortin receptor 3.

As for `C[C@H]1Oc2cc(cnc2N)-c2c(nn(C)c2C#N)CN(C)C(=O)c2ccc(F)cc21` [LORLATINIB], the AC50 (in assay [1]; at Adenosine receptor A1; in assay [2]; in assay [3]; in [4]; in assay [5]) was more than 30 µM each time. The AC50 was 1.2 µM on Adenosine receptor A3, more than 30 µM in assay [6] and more than 30 µM at Melanocortin receptor 3.

For the compound `CC(=O)Oc1ccccc1C(=O)Nc1ncc([N+](=O)[O-])s1` [NITAZOXANIDE], the AC50 in [1] is 19 µM; on Adenosine receptor A1, 7.1 µM; in [2], more than 30 µM; in assay [3], more than 30 µM; in [4], 8.6 µM; in assay [5], 3.1 µM. Also, the figures for the AC50 (at Adenosine receptor A3; in assay [6]; on Melanocortin receptor 3) were 5 µM, 5.1 µM and 14 µM, respectively.

In the case of `CN(C)c1cc(CNCC(C)(C)C)c(O)c2c1C[C@H]1C[C@H]3[C@H](N(C)C)C(O)=C(C(N)=O)C(=O)[C@@]3(O)C(O)=C1C2=O` [OMADACYCLINE], the concentration at half-maximal activity (AC50) in [1] is more than 30 µM; at Adenosine receptor A1, more than 30 µM; in assay [2] it was more than 30 µM; in assay [3], 29 µM; in assay [4], more than 30 µM; in [5], 25 µM. Moreover, the values for the half-maximal activity concentration (AC50) (at Adenosine receptor A3; in [6]; on Melanocortin receptor 3) were 25 µM, more than 30 µM and more than 30 µM, respectively.

As to `CCOc1cc(CC(=O)N[C@@H](CC(C)C)c2ccccc2N2CCCCC2)ccc1C(=O)O` [REPAGLINIDE], the concentration at half-maximal activity (AC50) in assay [1] is more than 30 µM; at Adenosine receptor A1 it was more than 30 µM; in assay [2], 27 µM; in assay [3] it was more than 30 µM; in assay [4], more than 30 µM; in [5], more than 30 µM. Moreover, the results for the concentration at half-maximal activity (AC50) (on Adenosine receptor A3; in assay [6]; at Melanocortin receptor 3) were 22 µM, more than 30 µM and more than 30 µM, respectively.

`O=C(Nc1c(Cl)cncc1Cl)c1ccc(OC(F)F)c(OCC2CC2)c1` [ROFLUMILAST]: the AC50 (in assay [1]; on Adenosine receptor A1; in assay [2]; in assay [3]; in assay [4]; in assay [5]) was more than 30 µM each time. Moreover, the AC50 (on Adenosine receptor A3; in [6]; on Melanocortin receptor 3) was more than 30 µM in each case.

Regarding `CCCN(CCC)CCc1cccc2c1CC(=O)N2` [ROPINIROLE], the AC50 is 12 µM in [1]; more than 30 µM on Adenosine receptor A1; 6.93 µM in [2]; more than 30 µM in [3]; more than 30 µM in [4]; more than 30 µM in [5]. Further, the AC50 (at Adenosine receptor A3; in [6]; on Melanocortin receptor 3) was more than 30 µM throughout.

`CC(C)N(CCCCOCC(=O)NS(C)(=O)=O)c1cnc(-c2ccccc2)c(-c2ccccc2)n1` [SELEXIPAG]: the half-maximal activity concentration (AC50) was more than 30 µM in assay [1]; more than 30 µM at Adenosine receptor A1; more than 30 µM in assay [2]; more than 30 µM in [3]; 7.2 µM in assay [4]; more than 30 µM in assay [5]. Further, the concentration at half-maximal activity (AC50) is 7.89 µM at Adenosine receptor A3, more than 30 µM in [6] and more than 30 µM on Melanocortin receptor 3.

Regarding `Cc1cc(CC(=O)O)n(C)c1C(=O)c1ccc(Cl)cc1` [ZOMEPIRAC], the AC50 (in assay [1]; on Adenosine receptor A1; in assay [2]; in [3]; in assay [4]; in [5]) was more than 30 µM in each case. In addition, the half-maximal activity concentration (AC50) (on Adenosine receptor A3; in [6]; on Melanocortin receptor 3) was more than 30 µM in each case.
